{"source": "patent US9567319B2", "about": "“Compound having higher inhibitory activity on protein kinase G and preparation method thereof” (Jenkem Technology Co., Ltd., (Tianjin), priority 2014, dated 2017)", "key": {"[1]": {"system": "hyperalgesia induced by Freund's complete adjuvant (CFA) in rats", "assay": "Weight bearing test, CFA induced hyperalgesia in rats", "assay_type": "in vivo, SD rats", "conditions": "for Weight Bearing Test Values (Mean ± SD), Baseline: pretreatment, n=8; for Weight Bearing Test Values (Mean ± SD), 15 min: 15 min post treatment; for Weight Bearing Test Values (Mean ± SD), 2 h: 2 h post treatment", "description": "Compounds 46 and JK-02A were prepared according to the disclosure of US patent application No. US2008/0176920, and compound JK-02H was prepared according to Example 1. A repeat efficacy study was carried out on the same batch of animals with a single-dose treatment followed by a washing-out period. The 14 days in life studies included two stages: a single low dose treatment assessment on the 7th day and then a single high dose treatment test on the 14th day after CFA injection. On the 7th day after CFA injection, the rats were randomly assigned to respective groups using a computer generated randomization procedure based on the body weight and the baseline values of Von Frey and weight bearing test. Animals received corresponding single dose treatments (vehicle and 3 test articles) on the 7th and 14th days after CFA injection, respectively, and the effect of the test compounds were evaluated. Hyperalgesia of all the study animals was assessed following a single low dose treatment with the test articles on day 7, while a single high dose effect of the test article was evaluated on day 14. The mechanical hyperalgesia and weight bearing were measured on day 7 and day 14 after CFA injection, followed by administration of control or test articles. Von Frey filaments and weight bearing were measured on all the study animals at three time points on day 7, and four time points on day 14. An extra time point assessment was conducted on day 14, considering the strong analgesic effect of the test articles at a higher dose noticed during the test at the 3th time point. Rats distributed body weight unequally on the CFA-injected and contra lateral paws, which was measured by a weight balance changing instrument (Bio-medical, USA). The animals were tested in a box constructed to register the weight load exerted by the hind paws by means of force plates inserted in the floor. The mean weight bearing (unit in “g”) between the CFA-injected paw and the contra-lateral paw was determined in 10 seconds. The weight bearing test of all study animals was conducted at the same time intervals as the mechanical hyperalgesia test. All the results were expressed as mean±SD. One-way analysis of variance (ANOVA) followed by a multiple comparison test were applied among the groups, p<0.05 accepted as significant."}, "[2]": {"assay": "Test of water solubility of the compounds", "experimental": "At room temperature, about 0.1 g of each sample to be tested (solid materials should be ground as powder) was added to a 10 mL cylinder with a ground glass stopper. Water was gradually added. After each addition of 0.5 mL water, the resulting solution was stirred for 10 min for mixing, and was then visually examined for the presence of any undissolved sample. If there still exists undissolved sample or undissolved portions of the sample after 10 mL water was added, the test would be continued in a 100 mL cylinder."}, "[3]": {"conditions": "day 7 after CFA, single low dose i.v. (46 and JK-02A 10 mg/kg, JK-02H 5 mg/kg)"}, "[4]": {"conditions": "day 14 after CFA, single high dose i.v. (46 and JK-02A 40 mg/kg, JK-02H 20 mg/kg)"}, "[5]": {"conditions": "individual animal, high dose i.v. (46 and JK-02A 40 mg/kg, JK-02H 20 mg/kg), hydrochloride"}, "[6]": {"conditions": "individual animal, low dose i.v. (46 and JK-02A 10 mg/kg, JK-02H 5 mg/kg), hydrochloride"}}, "note": "Where “and” joins values, the source holds several entries; their conditions need not be identical. Identical values can stand only once.", "data": [{"smiles": "Cl.O=C(N[C@@H]1CNC[C@H]1NC(=O)c1ccc2cn[nH]c2c1)c1ccc(C(=O)c2c(OCCOCCO)ccc(F)c2F)cc1", "note": "[JK-02H, (3R,4R)-3-{4-[2,3-difluoro-6-(5-hydroxy-3-oxapentan-1-oxy)]benzoyl}benzamido-4-(1H-indazole-6-carboxamido)pyrrolidine hydrochloride]", "values": [{"measurement": "Weight Bearing Test Values (Mean ± SD), Baseline", "setting": "[1]; day 7 after CFA, low dose groups (46 and JK-02A 10 mg/kg, JK-02H 5 mg/kg)", "result": "48.83 ± 9.15", "unit": "g"}, {"measurement": "Weight Bearing Test Values (Mean ± SD), 15 min", "setting": "[1]; [3]", "result": "25.30 ± 7.97", "unit": "g"}, {"measurement": "Weight Bearing Test Values (Mean ± SD), 2 h", "setting": "[1]; [3]", "result": "37.43 ± 9.77", "unit": "g"}, {"measurement": "Weight Bearing Test Values (Mean ± SD), Baseline", "setting": "[1]; day 14 after CFA, high dose groups (46 and JK-02A 40 mg/kg, JK-02H 20 mg/kg)", "result": "46.68 ± 4.82", "unit": "g"}, {"measurement": "Weight Bearing Test Values (Mean ± SD), 15 min", "setting": "[1]; [4]", "result": "28.55 ± 10.91", "unit": "g"}, {"measurement": "Weight Bearing Test Values (Mean ± SD), 2 h", "setting": "[1]; [4]", "result": "30.48 ± 7.88", "unit": "g"}, {"measurement": "Weight Bearing Test Values (Mean ± SD), 5 h", "setting": "[1]; day 14 after CFA, single high dose i.v. (46 and JK-02A 40 mg/kg, JK-02H 20 mg/kg), 5 h post treatment", "result": "37.58 ± 6.58", "unit": "g"}, {"measurement": "Weight Bearing Values of Individual Animal, Day 14, 15 min, Left", "setting": "[1]; [5]", "result": "59.4 g and 69.4 g and 72.7 g and 72.8 g and 23.1 g and 55.7 g and 42.0 g and 55.0 g"}, {"measurement": "Weight Bearing Values of Individual Animal, Day 14, 15 min, Right", "setting": "[1]; [5]", "result": "82.5 g and 90.8 g and 92.9 g and 99.1 g and 77.6 g and 82.3 g and 70.4 g and 82.9 g"}, {"measurement": "Weight Bearing Values of Individual Animal, Day 14, 15 min, Δ", "setting": "[1]; [5]", "result": "23.1 g and 21.4 g and 20.2 g and 26.3 g and 54.5 g and 26.6 g and 28.4 g and 27.9 g"}, {"measurement": "Weight Bearing Values of Individual Animal, Day 14, 2 h, Left", "setting": "[1]; [5]", "result": "75.2 g and 69.4 g and 47.2 g and 71.7 g (2×) and 76.8 g and 55.9 g and 47.9 g"}, {"measurement": "Weight Bearing Values of Individual Animal, Day 14, 2 h, Right", "setting": "[1]; [5]", "result": "95.7 g and 104.8 g and 90.0 g and 96.8 g and 99.9 g and 93.7 g and 80.6 g and 98.1 g"}, {"measurement": "Weight Bearing Values of Individual Animal, Day 14, 2 h, Δ", "setting": "[1]; [5]", "result": "20.5 g and 35.4 g and 42.8 g and 25.1 g and 23.1 g and 37.8 g and 32.7 g and 26.4 g"}, {"measurement": "Weight Bearing Values of Individual Animal, Day 14, 5 h, Left", "setting": "[1]; [5]", "result": "63.5 g and 62.4 g and 66.3 g and 54.9 g and 63.8 g and 57.7 g and 47.6 g and 44.0 g"}, {"measurement": "Weight Bearing Values of Individual Animal, Day 14, 5 h, Right", "setting": "[1]; [5]", "result": "94.2 g and 111.2 g and 105.6 g and 95.6 g and 95.1 g and 88.7 g and 83.3 g and 87.1 g"}, {"measurement": "Weight Bearing Values of Individual Animal, Day 14, 5 h, Δ", "setting": "[1]; [5]", "result": "30.7 g and 48.8 g and 39.3 g and 40.7 g and 31.3 g and 31.0 g and 35.7 g and 43.1 g"}, {"measurement": "Weight Bearing Values of Individual Animal, Day 7, 15 min, Left", "setting": "[1]; [6]", "result": "54.2 g and 73.4 g and 30.9 g and 63.3 g and 46.3 g and 67.8 g and 45.1 g and 60.6 g"}, {"measurement": "Weight Bearing Values of Individual Animal, Day 7, 15 min, Right", "setting": "[1]; [6]", "result": "77.2 g and 99.2 g and 71.7 g and 77.8 g and 72.4 g and 85.5 g and 75.2 g and 85.0 g"}, {"measurement": "Weight Bearing Values of Individual Animal, Day 7, 15 min, Δ", "setting": "[1]; [6]", "result": "23.0 g and 25.8 g and 40.8 g and 14.5 g and 26.1 g and 17.7 g and 30.1 g and 24.4 g"}, {"measurement": "Weight Bearing Values of Individual Animal, Day 7, 2 h, Left", "setting": "[1]; [6]", "result": "42.3 g and 29.7 g and 57.5 g and 72.9 g and 23.1 g and 37.3 g and 43.5 g and 51.9 g"}, {"measurement": "Weight Bearing Values of Individual Animal, Day 7, 2 h, Right", "setting": "[1]; [6]", "result": "66.8 g and 74.0 g and 106.2 g and 97.7 g and 71.6 g and 77.0 g and 81.2 g and 83.1 g"}, {"measurement": "Weight Bearing Values of Individual Animal, Day 7, 2 h, Δ", "setting": "[1]; [6]", "result": "24.5 g and 44.3 g and 48.7 g and 24.8 g and 48.5 g and 39.7 g and 37.7 g and 31.2 g"}, {"measurement": "First Baseline, Balance Left, individual animal", "setting": "[1]; individual animal, pretreatment day 7, left (CFA-injected) hind paw, hydrochloride", "result": "62.6 g and 45.6 g and 51.0 g and 60.6 g and 48.8 g and 56.5 g and 38.6 g and 64.0 g"}, {"measurement": "First Baseline, Balance Right, individual animal", "setting": "[1]; individual animal, pretreatment day 7, right hind paw, hydrochloride", "result": "96.2 g (2×) and 101.1 g and 115.5 g and 89.7 g and 121.0 g and 87.7 g and 110.9 g"}, {"measurement": "First Baseline, Balance Δ, individual animal", "setting": "[1]; individual animal, pretreatment day 7, right minus left, hydrochloride", "result": "33.6 g and 50.6 g and 50.1 g and 54.9 g and 40.9 g and 64.5 g and 49.1 g and 46.9 g"}, {"measurement": "Second Baseline, Balance Left, individual animal", "setting": "[1]; individual animal, pretreatment day 14, left (CFA-injected) hind paw, hydrochloride", "result": "43.2 g and 65.0 g and 68.9 g and 61.3 g and 47.2 g and 60.6 g and 50.2 g and 51.8 g"}, {"measurement": "Second Baseline, Balance Right, individual animal", "setting": "[1]; individual animal, pretreatment day 14, right hind paw, hydrochloride", "result": "86.1 g and 110.8 g and 113.2 g and 115.1 g and 93.6 g and 102.8 g and 93.7 g and 106.3 g"}, {"measurement": "Second Baseline, Balance Δ, individual animal", "setting": "[1]; individual animal, pretreatment day 14, right minus left, hydrochloride", "result": "42.9 g and 45.8 g and 44.3 g and 53.8 g and 46.4 g and 42.2 g and 43.5 g and 54.5 g"}, {"measurement": "Volume of added water", "setting": "[2]; about 0.1 g sample, room temperature, water added until dissolved", "result": 13.5, "unit": "mL"}, {"measurement": "water solubility, times higher than that of compound 46", "setting": "[2]; relative to compound 46 (parent compound)", "result": "about 5 times"}, {"measurement": "solubility", "setting": "[2]; water, thermodynamic from solid", "result": 7400, "unit": "µg/mL"}]}]}
